Here are results for 16 compounds from US20230027026A1, “FUSED PYRIMIDINE COMPOUNDS, COMPOSITIONS AND MEDICINAL APPLICATIONS THEREOF” (JUBILANT BIOSYS LIMITED, priority 2019, published 2023).

One assay relates to A431 cells. The assay can be described thus: Cellular proliferation (Alamar Blue) assay, A431. The class given is cell-based. The conditions noted are these: Homo sapiens, A-431; A431 cells, 72 hr, Alamar Blue; read-out: A431 IC50. The method in brief:
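Following a 16–18 h pre-incubation, cells received compound or DMSO for 72 h at 37 °C across a 10–0.0005 μM final range. Proliferation was then scored by Alamar Blue fluorescence (540 nm excitation, 590 nm emission) after 3 h.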

The target in assay [1] is EGFR (A767_dupASV) expressing Ba/F3 stable cell line (Homo sapiens, UniProt P00533, DUP767-769, cells depend on it). The assay can be described thus: Cellular proliferation (Alamar Blue) assay, EGFR A767_dupASV Ba/F3. Type of assay: cell-based. The conditions noted are these: EGFR A767_dupASV Ba/F3, 72 hr, read-out: A767 IC50. The method in brief: (§1)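 Ba/F3 lines were seeded at 15,000 cells/well in RPMI with 10% FBS and rested 16–18 h at 37 °C. Compounds were added as 3-fold serial dilutions (final 10–0.0005 μM) for 72 h, then Alamar Blue was added for 3 h and fluorescence read at 540 nm excitation/590 nm emission.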
Sequence of EGFR (A767_dupASV) expressing Ba/F3 stable cell line (P00533 with tags, fused parts or gaps DUP767-769): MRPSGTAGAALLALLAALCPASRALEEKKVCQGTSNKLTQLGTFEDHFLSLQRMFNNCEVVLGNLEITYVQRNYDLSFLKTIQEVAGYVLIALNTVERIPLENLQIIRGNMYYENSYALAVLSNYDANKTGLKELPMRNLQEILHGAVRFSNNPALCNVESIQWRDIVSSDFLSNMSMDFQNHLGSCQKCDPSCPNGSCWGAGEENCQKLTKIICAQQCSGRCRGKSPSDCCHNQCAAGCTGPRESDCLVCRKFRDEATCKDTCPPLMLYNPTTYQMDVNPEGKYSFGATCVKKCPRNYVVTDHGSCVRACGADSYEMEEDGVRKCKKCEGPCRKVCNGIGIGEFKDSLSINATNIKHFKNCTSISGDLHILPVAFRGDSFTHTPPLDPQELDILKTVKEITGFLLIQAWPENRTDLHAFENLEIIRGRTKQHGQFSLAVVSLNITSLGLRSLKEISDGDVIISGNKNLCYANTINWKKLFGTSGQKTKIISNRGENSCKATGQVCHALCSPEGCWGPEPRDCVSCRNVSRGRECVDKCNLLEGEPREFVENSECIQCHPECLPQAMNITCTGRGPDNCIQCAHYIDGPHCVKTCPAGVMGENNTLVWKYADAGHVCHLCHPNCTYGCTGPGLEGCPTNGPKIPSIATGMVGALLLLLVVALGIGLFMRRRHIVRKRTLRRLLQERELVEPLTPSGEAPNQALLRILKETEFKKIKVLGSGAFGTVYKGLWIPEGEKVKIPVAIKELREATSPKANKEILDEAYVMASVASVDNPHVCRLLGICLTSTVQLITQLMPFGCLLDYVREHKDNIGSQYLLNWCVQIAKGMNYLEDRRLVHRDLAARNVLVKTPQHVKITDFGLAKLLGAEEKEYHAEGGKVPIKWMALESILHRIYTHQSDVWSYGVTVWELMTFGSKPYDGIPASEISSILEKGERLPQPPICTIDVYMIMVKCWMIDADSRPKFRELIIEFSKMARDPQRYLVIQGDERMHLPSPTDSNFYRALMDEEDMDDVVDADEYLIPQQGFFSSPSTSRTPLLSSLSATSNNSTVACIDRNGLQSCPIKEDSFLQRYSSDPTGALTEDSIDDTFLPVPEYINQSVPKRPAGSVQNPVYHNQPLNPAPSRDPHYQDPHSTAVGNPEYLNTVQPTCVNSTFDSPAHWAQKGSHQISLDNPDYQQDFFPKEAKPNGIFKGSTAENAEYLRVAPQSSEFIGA

Assay [2] addresses EGFR(D770_N771insSVD) expressing Ba/F3 stable cell line (Homo sapiens, UniProt P00533, DUP768-770, cells depend on it). The assay can be described thus: Cellular proliferation (Alamar Blue) assay, EGFR D770_N771insSVD Ba/F3. Type of assay: cell-based. Conditions: EGFR D770_N771insSVD Ba/F3, 72 hr, read-out: D770 IC50. Summed up:
as §1

A further assay deals with T1, EGFR (T790M/L858R) (Homo sapiens, UniProt P00533, L858R/T790M).
T1 construct: GST; purchased Proqinase
T1 sequence (P00533 25-1210 T790M/L858R): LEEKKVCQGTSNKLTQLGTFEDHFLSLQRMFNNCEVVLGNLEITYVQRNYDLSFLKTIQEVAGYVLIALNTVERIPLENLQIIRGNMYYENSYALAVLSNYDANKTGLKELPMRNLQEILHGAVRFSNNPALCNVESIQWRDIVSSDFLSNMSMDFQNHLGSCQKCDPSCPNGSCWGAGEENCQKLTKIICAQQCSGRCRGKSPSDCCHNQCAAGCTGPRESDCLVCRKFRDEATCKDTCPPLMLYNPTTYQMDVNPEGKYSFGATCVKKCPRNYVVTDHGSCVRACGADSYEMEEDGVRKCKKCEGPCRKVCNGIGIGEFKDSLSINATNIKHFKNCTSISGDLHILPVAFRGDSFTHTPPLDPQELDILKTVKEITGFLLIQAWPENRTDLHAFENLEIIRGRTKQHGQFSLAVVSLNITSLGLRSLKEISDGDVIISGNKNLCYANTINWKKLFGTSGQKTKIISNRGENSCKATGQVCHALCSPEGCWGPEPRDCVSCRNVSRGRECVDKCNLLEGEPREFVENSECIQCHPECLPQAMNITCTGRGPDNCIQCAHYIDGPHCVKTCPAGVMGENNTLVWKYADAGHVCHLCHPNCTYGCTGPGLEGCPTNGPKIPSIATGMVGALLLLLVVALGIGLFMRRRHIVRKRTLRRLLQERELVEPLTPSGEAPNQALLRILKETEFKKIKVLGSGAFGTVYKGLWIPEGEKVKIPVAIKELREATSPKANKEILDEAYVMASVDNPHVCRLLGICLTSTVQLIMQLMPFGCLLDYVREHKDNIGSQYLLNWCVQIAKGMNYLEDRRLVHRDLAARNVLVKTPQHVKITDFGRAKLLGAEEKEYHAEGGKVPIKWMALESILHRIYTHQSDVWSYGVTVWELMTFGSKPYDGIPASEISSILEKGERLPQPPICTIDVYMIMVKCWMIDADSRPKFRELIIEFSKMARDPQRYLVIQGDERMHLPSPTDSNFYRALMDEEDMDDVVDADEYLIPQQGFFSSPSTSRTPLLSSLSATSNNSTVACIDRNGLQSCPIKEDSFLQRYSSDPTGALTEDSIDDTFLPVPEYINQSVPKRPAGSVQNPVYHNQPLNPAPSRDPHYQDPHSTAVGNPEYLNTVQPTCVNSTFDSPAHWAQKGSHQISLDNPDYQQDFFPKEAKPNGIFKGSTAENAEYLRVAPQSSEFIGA
The assay can be described thus: EGFR L858R/T790M enzyme inhibition assay (HTRF). The class given is biochemical. Conditions: 5 μM ATP, 60 min, read-out: EGFR_L858R T790M_IC50_nM. Summed up:
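HTRF kinase assay with 2.5 nM GST-EGFR T790M/L858R, 0.5 μM biotinylated gastrin peptide and 5 μM ATP in HEPES pH 7.4 with Mg/Mn, 60 min at room temperature; compounds from 10 μM top. Phosphotyrosine detected by Eu anti-pTyr/SA-APC; IC50 from % inhibition.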

The test system of assay [3] is H1975 cells (L858R_T790M mutant). Briefly: H1975 proliferation assay. Type of assay: cell-based. Conditions: Homo sapiens, NCI-H1975; read-out: Proliferation_Assay H1975 cells-EC50_nM L858R_T790M_mutant.

Bounds are passed on as bounds.

Sequence of EGFR(D770_N771insSVD) expressing Ba/F3 stable cell line (P00533 with tags, fused parts or gaps DUP768-770): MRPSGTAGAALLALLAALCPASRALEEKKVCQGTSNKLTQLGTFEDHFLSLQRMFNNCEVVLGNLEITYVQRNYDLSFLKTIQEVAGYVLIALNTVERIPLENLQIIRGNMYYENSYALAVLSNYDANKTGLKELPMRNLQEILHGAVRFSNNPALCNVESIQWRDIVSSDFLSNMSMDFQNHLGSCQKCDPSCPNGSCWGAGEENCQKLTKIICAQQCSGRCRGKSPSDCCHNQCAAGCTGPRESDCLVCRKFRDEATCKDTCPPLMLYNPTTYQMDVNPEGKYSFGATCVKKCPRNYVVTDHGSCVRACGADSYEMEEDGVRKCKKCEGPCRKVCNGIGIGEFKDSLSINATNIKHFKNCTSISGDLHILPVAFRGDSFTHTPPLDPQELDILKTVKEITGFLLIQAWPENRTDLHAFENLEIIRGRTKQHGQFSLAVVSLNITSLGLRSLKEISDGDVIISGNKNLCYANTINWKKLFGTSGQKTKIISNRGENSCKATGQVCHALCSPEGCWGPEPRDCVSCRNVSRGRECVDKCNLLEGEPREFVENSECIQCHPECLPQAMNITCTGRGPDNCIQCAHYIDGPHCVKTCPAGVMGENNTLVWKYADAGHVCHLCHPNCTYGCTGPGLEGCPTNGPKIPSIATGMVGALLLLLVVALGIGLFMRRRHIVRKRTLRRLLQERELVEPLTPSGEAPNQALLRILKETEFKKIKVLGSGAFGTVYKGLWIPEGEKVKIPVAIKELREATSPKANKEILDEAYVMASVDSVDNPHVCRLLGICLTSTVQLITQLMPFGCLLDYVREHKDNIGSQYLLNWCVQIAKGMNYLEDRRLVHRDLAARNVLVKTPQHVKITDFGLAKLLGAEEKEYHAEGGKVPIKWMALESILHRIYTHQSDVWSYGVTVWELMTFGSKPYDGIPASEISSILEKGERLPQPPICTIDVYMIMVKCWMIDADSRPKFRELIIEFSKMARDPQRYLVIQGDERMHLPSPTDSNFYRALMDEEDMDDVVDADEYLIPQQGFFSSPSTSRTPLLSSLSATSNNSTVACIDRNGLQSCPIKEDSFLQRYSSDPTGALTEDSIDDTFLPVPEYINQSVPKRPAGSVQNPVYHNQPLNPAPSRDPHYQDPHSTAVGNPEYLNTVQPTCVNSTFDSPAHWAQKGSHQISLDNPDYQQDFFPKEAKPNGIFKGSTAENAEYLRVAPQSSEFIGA

As to `Cc1nn(C)cc1Nc1ncc2c(n1)N(c1cccc(NC(=O)/C=C/CN(C)C)c1)C(=O)N(Cc1ccccc1)C2` [Compound 23, (E)-N-(3-(3-benzyl-7-((1,3-dimethyl-1H-pyrazol-4-yl)amino)-2-oxo-3,4-dihydropyrimido[4,5-d]pyrimidin-1(2H)-yl)phenyl)-4-(dimethylamino)but-2-enamide], the IC50 in the assay with A431 cells turned out to be 18 nM; on EGFR (T790M/L858R), 3 nM. The GI50 in assay [1] was 124 nM; in assay [2] it was 299 nM. In assay [3], the EC50 came to 6.4 nM.

In the case of `C=CC(=O)NC1CCCC(N2C(=O)N(Cc3ccccc3)Cc3cnc(Nc4cnn(C)c4)nc32)C1` (centres unmarked) [Compound 24, N-(3-(3-benzyl-7-((1-methyl-1H-pyrazol-4-yl)amino)-2-oxo-3,4-dihydropyrimido[4,5-d]pyrimidin-1(2H)-yl)cyclohexyl)acrylamide], the IC50 in the assay on A431 cells is 8340 nM; on EGFR (T790M/L858R), 53 nM. Moreover, the GI50 was determined as 356 nM in assay [1] and 340 nM in assay [2]. In assay [3], the EC50 is 71 nM.

Turning to `C=CC(=O)Nc1cccc(N2C(=O)N(Cc3ccccc3)Cc3cnc(Nc4nc(C)cs4)nc32)c1` [Compound 25, N-(3-(3-benzyl-7-((4-methylthiazol-2-yl)amino)-2-oxo-3,4-dihydropyrimido[4,5-d]pyrimidin-1(2H)-yl)phenyl)acrylamide], the figures for the IC50 in the assay on A431 cells and at EGFR (T790M/L858R) were 83 nM and 3 nM, respectively. Moreover, the GI50 in assay [1] came out at 320 nM; in assay [2] it was 69 nM. In addition, the EC50 in assay [3] was 29 nM.

In the case of `CN(C)C/C=C/C(=O)Nc1cccc(N2C(=O)N(Cc3ccccc3)Cc3cnc(Nc4cn(C)nn4)nc32)c1` [Compound 26, (E)-N-(3-(3-benzyl-7-((1-methyl-1H-1,2,3-triazol-4-yl)amino)-2-oxo-3,4-dihydropyrimido[4,5-d]pyrimidin-1(2H)-yl)phenyl)-4-(dimethylamino)but-2-enamide], the IC50 stood at 3080 nM in the assay with A431 cells and 5 nM on EGFR (T790M/L858R). Also, the figures for the GI50 in assay [1] and in assay [2] were 3330 nM and 3690 nM, respectively. Moreover, in assay [3], the EC50 was determined as 222 nM.

Regarding `Cc1cnc(Nc2ncc3c(n2)N(C2CCCC(NC(=O)/C=C/CN(C)C)C2)C(=O)N(Cc2ccccc2)C3)s1` (centres unmarked) [Compound 27, (E)-N-(3-(3-benzyl-7-((5-methylthiazol-2-yl)amino)-2-oxo-3,4-dihydropyrimido[4,5-d]pyrimidin-1(2H)-yl)cyclohexyl)-4-(dimethylamino)but-2-enamide], the IC50 amounted to 4400 nM in the assay on A431 cells and 303 nM at EGFR (T790M/L858R). The GI50 was 9190 nM in assay [1] and at least 10000 nM in assay [2]. Besides, the EC50 in assay [3] is at least 10000 nM.

`Cc1csc(Nc2ncc3c(n2)N(C2CCCC(NC(=O)/C=C/CN(C)C)C2)C(=O)N(Cc2ccccc2)C3)n1` (centres unmarked) [Compound 29, (E)-N-(3-(3-benzyl-7-((4-methylthiazol-2-yl)amino)-2-oxo-3,4-dihydropyrimido[4,5-d]pyrimidin-1(2H)-yl)cyclohexyl)-4-(dimethylamino)but-2-enamide]: the IC50 in the assay on A431 cells worked out at 4090 nM; at EGFR (T790M/L858R), 660 nM. Also, the GI50 in assay [1] came to 2600 nM; in assay [2], 431 nM. Also, in assay [3], the EC50 stood at 1080 nM.

`C=CC(=O)NC1CCCC(N2C(=O)N(Cc3ccccc3)Cc3cnc(Nc4ncc(C)s4)nc32)C1` (centres unmarked) [Compound 30, N-(3-(3-benzyl-7-((5-methylthiazol-2-yl)amino)-2-oxo-3,4-dihydropyrimido[4,5-d]pyrimidin-1(2H)-yl)cyclohexyl)acrylamide]: the IC50 in the assay on A431 cells was 920 nM; on EGFR (T790M/L858R), 164 nM. Moreover, the GI50 in assay [1] was found to be 2810 nM; in assay [2], 2570 nM. In addition, in assay [3], the EC50 is 413 nM.

Regarding `CN(C)C/C=C/C(=O)NC1CCCC(N2C(=O)N(Cc3ccccc3)Cc3cnc(Nc4cnn(C)c4)nc32)C1` (centres unmarked) [Compound 31, (E)-N-(3-(3-benzyl-7-((1-methyl-1H-pyrazol-4-yl)amino)-2-oxo-3,4-dihydropyrimido[4,5-d]pyrimidin-1(2H)-yl)cyclohexyl)-4-(dimethylamino)but-2-enamide], the IC50 with A431 cells is 1970 nM; at EGFR (T790M/L858R) it was 281 nM. Also, the GI50 stood at 3320 nM in assay [1] and 3480 nM in assay [2]. The EC50 in assay [3] worked out at 299 nM.

As to `Cc1cc(Nc2ncc3c(n2)N(C2CCCC(NC(=O)/C=C/CN(C)C)C2)C(=O)N(Cc2ccccc2)C3)sn1` (centres unmarked) [Compound 32, (E)-N-(3-(3-benzyl-7-((3-methylisothiazol-5-yl)amino)-2-oxo-3,4-dihydropyrimido[4,5-d]pyrimidin-1(2H)-yl)cyclohexyl)-4-(dimethylamino)but-2-enamide], the results for the IC50 with A431 cells and on EGFR (T790M/L858R) were 1370 nM and 82 nM, respectively. In addition, the GI50 was 2910 nM in assay [1] and 2880 nM in assay [2]. Further, in assay [3], the EC50 was 176 nM.

As to `C=CC(=O)NC1CCCC(N2C(=O)N(Cc3ccccc3)Cc3cnc(Nc4cn(C)nc4Cl)nc32)C1` (centres unmarked) [Compound 40, N-(3-(3-benzyl-7-((3-chloro-1-methyl-1H-pyrazol-4-yl)amino)-2-oxo-3,4-dihydropyrimido[4,5-d]pyrimidin-1(2H)-yl)cyclohexyl)acrylamide], the IC50 in the assay on A431 cells was at least 10000 nM; on EGFR (T790M/L858R), 98 nM. The GI50 in assay [1] came to 1700 nM; in assay [2], 1870 nM. In addition, in assay [3], the EC50 came out at 323 nM.

`CN(C)C/C=C/C(=O)Nc1cccc(N2C(=O)N(Cc3ccccc3)Cc3cnc(Nc4ccc5c(cnn5C)c4)nc32)c1` [Compound 43, (E)-N-(3-(3-benzyl-7-((1-methyl-1H-indazol-5-yl)amino)-2-oxo-3,4-dihydropyrimido[4,5-d]pyrimidin-1(2H)-yl)phenyl)-4-(dimethylamino)but-2-enamide]: the results for the IC50 with A431 cells and at EGFR (T790M/L858R) were 632 nM and 3.8 nM, respectively. The GI50 in assay [1] came out at 103 nM; in assay [2] it was 108 nM. Besides, the EC50 in assay [3] was found to be 6.3 nM.

Take `CN(C)C/C=C/C(=O)Nc1cccc(N2C(=O)N(Cc3ccccc3)Cc3cnc(Nc4ccc5c(c4)cc(C#N)n5C)nc32)c1` [Compound 44, (E)-N-(3-(3-benzyl-7-((2-cyano-1-methyl-1H-indol-5-yl)amino)-2-oxo-3,4-dihydropyrimido[4,5-d]pyrimidin-1(2H)-yl)phenyl)-4-(dimethylamino)but-2-enamide]: the results for the IC50 with A431 cells and on EGFR (T790M/L858R) were 56 nM and 9 nM, respectively. The figures for the GI50 in assay [1] and in assay [2] were 123 nM and 106 nM, respectively. In addition, the EC50 in assay [3] stood at 37.6 nM.

Turning to `CN(C)C/C=C/C(=O)Nc1cccc(N2C(=O)N(Cc3ccccc3)Cc3cnc(Nc4ccc5cnn(C)c5c4)nc32)c1` [Compound 45, (E)-N-(3-(3-benzyl-7-((1-methyl-1H-indazol-6-yl)amino)-2-oxo-3,4-dihydropyrimido[4,5-d]pyrimidin-1(2H)-yl)phenyl)-4-(dimethylamino)but-2-enamide], the values for the IC50 in the assay with A431 cells and on EGFR (T790M/L858R) were 1130 nM and 11 nM, respectively. The figures for the GI50 in assay [1] and in assay [2] were 352 nM and 350 nM, respectively. The EC50 in assay [3] worked out at 46.7 nM.

Consider `C=CS(=O)(=O)Nc1cccc(N2C(=O)N(Cc3ccccc3)Cc3cnc(Nc4cnn(C)c4)nc32)c1` [Compound 47, N-(3-(3-benzyl-7-((1-methyl-1H-pyrazol-4-yl)amino)-2-oxo-3,4-dihydropyrimido[4,5-d]pyrimidin-1(2H)-yl)phenyl)ethenesulfonamide], for which the IC50 with A431 cells is at least 10000 nM; at EGFR (T790M/L858R), 0.9 nM. The GI50 in assay [1] was 2260 nM; in assay [2] it was at least 10000 nM. In assay [3], the EC50 was determined as 819 nM.

Consider `Cc1csc(Nc2ncc3c(n2)N(c2cccc(NC(=O)/C=C/CN(C)C)c2)C(=O)N(Cc2ccccc2)C3)n1` [Compound 48, (E)-N-(3-(3-benzyl-7-((4-methylthiazol-2-yl)amino)-2-oxo-3,4-dihydropyrimido[4,5-d]pyrimidin-1(2H)-yl)phenyl)-4-(dimethylamino)but-2-enamide], for which the IC50 with A431 cells worked out at 148 nM; at EGFR (T790M/L858R) it was 3.5 nM. The GI50 in assay [1] turned out to be 456 nM; in assay [2], 361 nM. Besides, the EC50 in assay [3] came to 133 nM.

In the case of `Cn1cc(Nc2ncc3c(n2)N(c2cccc(NC(=O)/C=C/Cl)c2)C(=O)N(Cc2ccccc2)C3)cn1` [Compound 50, (E)-N-(3-(3-benzyl-7-((1-methyl-1H-pyrazol-4-yl)amino)-2-oxo-3,4-dihydropyrimido[4,5-d]pyrimidin-1(2H)-yl)phenyl)-3-chloroacrylamide], the results for the IC50 with A431 cells and at EGFR (T790M/L858R) were 5380 nM and 0.4 nM, respectively. Also, the GI50 is 1350 nM in assay [1] and 8720 nM in assay [2]. Besides, in assay [3], the EC50 was 4200 nM.
